Reference: patent publication US20250073184A1, “CANNABIGEROQUINONE COMPOUNDS, COMPOSITIONS INCLUDING SUCH COMPOUNDS, AND USES OF SUCH COMPOUNDS AND COMPOSITIONS” (Juva Life, Inc., priority 2021, published 2025)
Read-outs that look alike come from different tables or passages of the source.

Assays:
Format in all cases: cell-based
TNFa = TNFa secretion assay in human PBMCs (LPS, ELISA); details: read-out: Inhibitory Activity EC50, TNF
Description: Fetal bovine serum (FBS) was obtained from ThermoFisher (Cat #16000044). • Other reagents: 96 well TC plates were obtained from ThermoFisher (Cat #07-2000-90). LPS was obtained from Sigma (Cat #L3024).
TNF-alpha was assessed using a standard ELISA protocol. Cryopreserved PBMCs were thawed in a water bath and transferred to 50 mL polypropylene tubes. The cells were washed two times with 25 mL of RPMI medium supplemented with 5% of heat-inactivated FBS and re-suspended at a density of 4.5^^6 cells/mL. The cells were plated into 96 well TC late (100 uL/well). Serially diluted compound was added to the cells in duplicate wells for each concentration. Control wells received DMSO only (0.3% final). The cells were pre-incubated with compound for 1 hr. After pre-incubation, the cells were stimulated by LPS (100 ng/mL) for 6 hr. Control samples with and without LPS in the absence of compound were assembled in each test plate. TNFa was detected in media supernatants by using a sandwich anti-TNFa ELISA kit (BD Biosciences) according to protocol provided by the manufacturer. ELISA readout (optical density at 450 nm) is commensurable with the amount of TNFa produced by the cells. Assay window was determined in each experiment by comparing average OD450 values in stimulated and un-stimulated samples in the absence of compound. ELISA calibration was performed in each detection plate using serially diluted recombinant human TNFa, to ensure that OD450 values for all test samples were within linear range of detection.%-Inhibition by compound was calculated using following equation:
where OD450100% is optical density in control samples stimulated with LPS without compound, OD4500% is optical density in unstimulated control samples, and OD450compound is optical density in a sample stimulated with LPS in the presence of compound.
(§1) The calculated %-Inh values were plotted against compound concentration. To determine IC50 values, dose-response curves were fitted by a 4-parameter sigmoid inhibition model using XLFit® software (IDBS).

IL-1β = IL-1β inhibitory activity
IFNgamma = IFNgamma secretion assay in human PBMCs (PHA-M, ELISA); details: for EC50: read-out: Inhibitory Activity EC50, IFNγ
Description: (§2) Fetal bovine serum (FBS) was obtained from ThermoFisher (Cat #16000044). • Other reagents: 96 well TC plates were obtained from ThermoFisher (Cat #07-2000-90).
(§3) IFN-gamma was assessed using a standard ELISA protocol. Cryopreserved PBMCs were thawed in a water bath and transferred to 50 mL polypropylene tubes. The cells were washed two times with 25 mL of RPMI medium supplemented with 5% of regular FBS and re-suspended at a density of 1.5^^6 cells/mL. The cells were plated into 96 well TC late (100 uL/well). Serially diluted compound was added to the cells in duplicate wells for each concentration. Control wells received DMSO only (0.3% final). The cells were pre-incubated with compound for 2 hr. After pre-incubation, the cells were stimulated by PHA-M (10 ug/mL) for 40 hr. Control samples with and without PHA-M in the absence of compound were assembled in each test plate. IFNg was detected in media supernatants by using a sandwich anti-IFNg ELISA kit (BD Biosciences) according to protocol provided by the manufacturer. ELISA readout (optical density at 450 nm) is commensurable with the amount of IFNg produced by the cells. Assay window was determined in each experiment by comparing average OD450 values in stimulated and un-stimulated samples in the absence of compound. ELISA calibration was performed in each detection plate using serially diluted recombinant human IFN gamma, to ensure that OD450 values for all test samples were within linear range of detection. %-Inhibition by compound was calculated using following equation:
where OD450100% is optical density in control samples stimulated with PHA-M without compound, OD4500% is optical density in unstimulated control samples, and OD450compound is optical density in a sample stimulated with PHA-M in the presence of compound.
as §1

IL10 = IL10 secretion assay in human PBMCs (PHA-M, ELISA); details: for EC50: read-out: Inhibitory Activity EC50, IL10
Description: as §2
as §3, with “Cryopreserved” for “IFN-gamma was assessed using a standard ELISA protocol. Cryopreserved”, “IFNg was detected in media supernatants by using a sandwich anti-IFNg ELISA kit (BD Biosciences) according to protocol provided by the manufacturer.” left out, “IL10” for “IFNg”, “IL10 standard,” for “IFN gamma,”, “detection.%-Inhibition” for “detection. %-Inhibition”
where OD450100% is optical density in control samples stimulated with PHA-M without compound, OD4500% is optical density in unstimulated control samples, and OD450compound is optical density in a sample stimulated with PHA-M in the presence of compound. The calculated %-Inh values were plotted against compound concentration. To determine IC50 values, dose-response curves were fitted by a 4-parameter sigmoid inhibition model using XLFit® software (IDBS).

[1] = PBMC, human PBMCs, LPS 100 ng/mL 6 hr
[2] = PBMC, human PBMCs, PHA-M 10 ug/mL 40 hr
[3] = human PBMCs, PHA-M 10 ug/mL 40 hr

Compound | EC50 (TNFa; Homo sapiens, PBMC, 6 h) | EC50 (IL-1β) | EC50 (IFNgamma; Homo sapiens, PBMC, 40 h) | inhibitory activity on IL-10 (IL10) | EC50 (IL10; Homo sapiens, PBMC, 40 h) | EC50 (TNFa; [1]) | EC50 (IFNgamma; [2]) | EC50 (IL10; [2]) | EC50 (TNFa; human PBMCs, LPS 100 ng/mL 6 hr) | stronger inhibition of IFNγ compared to Cox-2 (IFNgamma) | EC50 (IFNgamma; [3]) | EC50 (IL10; [3])
CCCCCc1cc(O)c(C/C=C(\C)CCC=C(C)C)c(O)c1O [Formula XXXIX] | 6.2 µM | 0.89 µM | 1.85 µM | particular strong inhibitory activity | 1.69 µM |  |  |  |  |  |  | 
CCCCCc1cc(OC)c(C/C=C(\C)CCC=C(C)C)c(O)c1OC [Formula XLII] |  | > 10 µM |  |  |  | > 10 µM | 4.1 µM | > 10 µM |  |  |  | 
CCCCCC1=C(NC)C(=O)C(C/C=C(\C)CCC=C(C)C)=C(O)C1=O [Formula XLI] |  | 0.12 µM |  | particular strong inhibitory activity |  | > 10 µM | 2.51 µM | > 10 µM |  |  |  | 
Cannabigerol Quinone [Formula VI] |  | 5.3 µM |  |  |  |  |  |  | 18.5 µM | over 60 fold | 0.91 µM | 1.1 µM
CCCCCc1cc(OC(C)=O)c(C/C=C(\C)CCC=C(C)C)c(O)c1OC(C)=O [Formula XLIII] |  | 0.89 µM |  | particular strong inhibitory activity |  | 8.68 µM | 1.13 µM | 1.2 µM |  |  |  | 
